From patent US20150018384A1, “TREATMENT FOR HIGH CHOLESTEROL” (FibroGen, Inc., priority 2012, published 2015)
One block for each compound: values may come before it.

Tested on: Cholesterol Biosynthesis Genes in the Mouse Liver
Experiment: Microarray expression of cholesterol biosynthesis genes in mouse liver
Type: in vivo
Experimental: A number of PHI compounds were evaluated for their effect on the expression of cholesterol biosynthesis genes in mouse liver. […] Liver tissue was harvested and stored in RNALater (Life Technologies). Total RNA was isolated with Trizol (Life Technologies) and purified with RNEasy96 (Qiagen) according to the manufacturers' protocols. RNA concentration was measured by NanoDrop (Thermo), and quality was assessed by Bioanalyzer (Agilent).
Biotinylated microarray probe was prepared using the 3′IVT Express kit (Affymetrix) and hybridized to mouse 430A 2.0 arrays as recommended in the manufacturer's protocol. Arrays were stained, washed, and scanned using Affymetrix equipment and software. Three arrays were run for each treatment and time point, each representing the liver sample from one individual animal.
Animals were sacrificed 4 h or 8 h later. Each compound was tested in a separate animal study with separate controls. Liver tissue was harvested and stored in RNALater (Life Technologies). Total RNA was isolated with Trizol (Life Technologies) and purified with RNEasy96 (Qiagen) according to the manufacturers' protocols. RNA concentration was measured by NanoDrop (Thermo), and quality was assessed by Bioanalyzer (Agilent).
For microarray analysis, RNA from animals in each treatment group was pooled in pairs (n=3 pairs for 4 h vehicle, n=2 pairs for all other treatment groups, for a total of 13 arrays per compound study). This approach was used to improve the signal-to-noise ratio on microarrays. Biotinylated probe was prepared using the One-Cycle cDNA synthesis kit (Affymetrix) and hybridized to mouse 430A 2.0 arrays as recommended in the manufacturer's protocol. Arrays were stained, washed, and scanned using Affymetrix equipment and software.
Array quality was assessed with GeneChip Operating System and/or Command Console software (Affymetrix). CEL files were uploaded to GeneSpring 7.3.1 (Agilent) using GC-RMA baseline correction. Principal Components Analysis was used to identify and reject outlier arrays. Data are reported as fold-change compared to timepoint-matched vehicle controls from the same study. Values less than 1.0 indicate a reduction of RNA in the treated animal liver tissue.

3-hydroxy-3-methylglutaryl-Coenzyme A reductase (Hmgcr) RNA expression (10 mg/kg oral, 4 h): 0.17 fold-change
3-hydroxy-3-methylglutaryl-Coenzyme A synthase 1 (Hmgcs1) RNA expression (10 mg/kg oral, 4 h): 0.36 fold-change
7-dehydrocholesterol reductase (Dhcr7) RNA expression (10 mg/kg oral, 4 h): 0.63 fold-change
NAD(P) dependent steroid dehydrogenase-like (Nsdhl) RNA expression (10 mg/kg oral, 4 h): 0.55 fold-change
acetyl-Coenzyme A acetyltransferase 2 (Acat2) RNA expression (10 mg/kg oral, 4 h): 0.77 fold-change
farnesyl diphosphate farnesyl transferase 1 (Fdft1) RNA expression (10 mg/kg oral, 4 h): 0.56 fold-change
farnesyl diphosphate synthetase (Fdps) RNA expression (10 mg/kg oral, 4 h): 0.43 fold-change
isopentenyl-diphosphate delta isomerase (Idi1) RNA expression (10 mg/kg oral, 4 h): 0.50 fold-change
mevalonate (diphospho) decarboxylase (Mvd) RNA expression (10 mg/kg oral, 4 h): 0.28 fold-change
mevalonate kinase (Mvk) RNA expression (10 mg/kg oral, 4 h): 0.76 fold-change
phosphomevalonate kinase (Pmvk) RNA expression (10 mg/kg oral, 4 h): 0.66 fold-change
squalene epoxidase (Sqle) RNA expression (10 mg/kg oral, 4 h): 0.48 fold-change
sterol-C4-methyl oxidase-like (Sc4mol) RNA expression (10 mg/kg oral, 4 h): 0.39 fold-change
sterol-C5-desaturase (fungal ERG3, delta-5-desaturase) homolog (S. cerevisae) (Sc5d) RNA expression (10 mg/kg oral, 4 h): 0.49 fold-change
3-hydroxy-3-methylglutaryl-Coenzyme A reductase (Hmgcr) RNA expression (10 mg/kg oral, 8 h): 0.66 fold-change
3-hydroxy-3-methylglutaryl-Coenzyme A synthase 1 (Hmgcs1) RNA expression (10 mg/kg oral, 8 h): 1.23 fold-change
7-dehydrocholesterol reductase (Dhcr7) RNA expression (10 mg/kg oral, 8 h): 1.18 fold-change
NAD(P) dependent steroid dehydrogenase-like (Nsdhl) RNA expression (10 mg/kg oral, 8 h): 1.40 fold-change
acetyl-Coenzyme A acetyltransferase 2 (Acat2) RNA expression (10 mg/kg oral, 8 h): 1.09 fold-change
farnesyl diphosphate farnesyl transferase 1 (Fdft1) RNA expression (10 mg/kg oral, 8 h): 1.42 fold-change
farnesyl diphosphate synthetase (Fdps) RNA expression (10 mg/kg oral, 8 h): 1.15 fold-change
isopentenyl-diphosphate delta isomerase (Idi1) RNA expression (10 mg/kg oral, 8 h): 1.08 fold-change
mevalonate (diphospho) decarboxylase (Mvd) RNA expression (10 mg/kg oral, 8 h): 0.58 fold-change
mevalonate kinase (Mvk) RNA expression (10 mg/kg oral, 8 h): 0.88 fold-change
phosphomevalonate kinase (Pmvk) RNA expression (10 mg/kg oral, 8 h): 1.53 fold-change
squalene epoxidase (Sqle) RNA expression (10 mg/kg oral, 8 h): 0.81 fold-change
sterol-C4-methyl oxidase-like (Sc4mol) RNA expression (10 mg/kg oral, 8 h): 0.92 fold-change
sterol-C5-desaturase (fungal ERG3, delta-5-desaturase) homolog (S. cerevisae) (Sc5d) RNA expression (10 mg/kg oral, 8 h): 0.52 fold-change
Compound: COc1ccc(Cn2c(Cl)c(Cl)c3c(O)c(C(=O)NCC(=O)O)nc(C#N)c32)cc1 [Compound F]
cytochrome P450, family 51 (Cyp51) RNA expression (10 mg/kg oral, 4 h): 0.62 fold-change
lanosterol synthase (Lss) RNA expression (10 mg/kg oral, 4 h): 0.51 fold-change
cytochrome P450, family 51 (Cyp51) RNA expression (10 mg/kg oral, 8 h): 1.05 fold-change
lanosterol synthase (Lss) RNA expression (10 mg/kg oral, 8 h): 1.04 fold-change

Compound: CC(C)Oc1ccc2c(O)c(C(=O)NCC(=O)O)nc(C#N)c2c1 [Compound H, [(1-Cyano-4-hydroxy-7-isopropoxy-isoquinoline-3-carbonyl)-amino]-acetic acid]
3-hydroxy-3-methylglutaryl-Coenzyme A reductase (Hmgcr) RNA expression (60 mg/kg oral, 4 h): 0.23 fold-change
3-hydroxy-3-methylglutaryl-Coenzyme A synthase 1 (Hmgcs1) RNA expression (60 mg/kg oral, 4 h): 0.62 fold-change
7-dehydrocholesterol reductase (Dhcr7) RNA expression (60 mg/kg oral, 4 h): 0.83 fold-change
NAD(P) dependent steroid dehydrogenase-like (Nsdhl) RNA expression (60 mg/kg oral, 4 h): 0.76 fold-change
acetyl-Coenzyme A acetyltransferase 2 (Acat2) RNA expression (60 mg/kg oral, 4 h): 0.71 fold-change
cytochrome P450, family 51 (Cyp51) RNA expression (60 mg/kg oral, 4 h): 0.66 fold-change
farnesyl diphosphate farnesyl transferase 1 (Fdft1) RNA expression (60 mg/kg oral, 4 h): 0.59 fold-change
farnesyl diphosphate synthetase (Fdps) RNA expression (60 mg/kg oral, 4 h): 0.69 fold-change
isopentenyl-diphosphate delta isomerase (Idi1) RNA expression (60 mg/kg oral, 4 h): 0.63 fold-change
lanosterol synthase (Lss) RNA expression (60 mg/kg oral, 4 h): 0.65 fold-change
mevalonate (diphospho) decarboxylase (Mvd) RNA expression (60 mg/kg oral, 4 h): 0.45 fold-change
mevalonate kinase (Mvk) RNA expression (60 mg/kg oral, 4 h): 0.74 fold-change
phosphomevalonate kinase (Pmvk) RNA expression (60 mg/kg oral, 4 h): 0.71 fold-change
squalene epoxidase (Sqle) RNA expression (60 mg/kg oral, 4 h): 0.95 fold-change
sterol-C4-methyl oxidase-like (Sc4mol) RNA expression (60 mg/kg oral, 4 h): 0.50 fold-change
sterol-C5-desaturase (fungal ERG3, delta-5-desaturase) homolog (S. cerevisae) (Sc5d) RNA expression (60 mg/kg oral, 4 h): 0.92 fold-change
3-hydroxy-3-methylglutaryl-Coenzyme A reductase (Hmgcr) RNA expression (60 mg/kg oral, 8 h): 0.17 fold-change
3-hydroxy-3-methylglutaryl-Coenzyme A synthase 1 (Hmgcs1) RNA expression (60 mg/kg oral, 8 h): 0.19 fold-change
7-dehydrocholesterol reductase (Dhcr7) RNA expression (60 mg/kg oral, 8 h): 0.39 fold-change
NAD(P) dependent steroid dehydrogenase-like (Nsdhl) RNA expression (60 mg/kg oral, 8 h): 0.34 fold-change
acetyl-Coenzyme A acetyltransferase 2 (Acat2) RNA expression (60 mg/kg oral, 8 h): 0.44 fold-change
cytochrome P450, family 51 (Cyp51) RNA expression (60 mg/kg oral, 8 h): 0.28 fold-change
farnesyl diphosphate farnesyl transferase 1 (Fdft1) RNA expression (60 mg/kg oral, 8 h): 0.33 fold-change
farnesyl diphosphate synthetase (Fdps) RNA expression (60 mg/kg oral, 8 h): 0.24 fold-change
isopentenyl-diphosphate delta isomerase (Idi1) RNA expression (60 mg/kg oral, 8 h): 0.28 fold-change
lanosterol synthase (Lss) RNA expression (60 mg/kg oral, 8 h): 0.35 fold-change
mevalonate (diphospho) decarboxylase (Mvd) RNA expression (60 mg/kg oral, 8 h): 0.24 fold-change
mevalonate kinase (Mvk) RNA expression (60 mg/kg oral, 8 h): 0.37 fold-change
phosphomevalonate kinase (Pmvk) RNA expression (60 mg/kg oral, 8 h): 0.5 fold-change
squalene epoxidase (Sqle) RNA expression (60 mg/kg oral, 8 h): 0.30 fold-change
sterol-C4-methyl oxidase-like (Sc4mol) RNA expression (60 mg/kg oral, 8 h): 0.19 fold-change
sterol-C5-desaturase (fungal ERG3, delta-5-desaturase) homolog (S. cerevisae) (Sc5d) RNA expression (60 mg/kg oral, 8 h): 0.61 fold-change
